In US8497279B2, “Treatment for discoid lupus” (Rigel Pharmaceuticals, Inc., priority 2011, dated 2013) one finds IC50 data, which are given here for 1 compound.

Structures can show the parent of a compound that is named as a salt.

In one experiment the test system is JAK1/JAK2 pathway. In words: A549 epithelial line stimulated with IFNγ, ICAM-1 surface expression (FACS). To be noted: A549 cells, IFNγ 75 ng/mL, 24 hours, ICAM-1 expression; read-out: Example 5 IC50. Type of experiment: cell-based, human. From the text: The JAK activity of the compounds described herein may also be characterized by assaying the effect of compounds I and II described herein on A549 lung epithelial cells and U937 cells. A549 lung epithelial cells and U937 cells up-regulate ICAM-1 (CD54) surface expression in response to a variety of different stimuli. Therefore, using ICAM-1 expression as readout, test compound effects on different signaling pathways can be assessed in the same cell type. Stimulation with IL-1β through the IL-1β receptor activates the TRAF6/NFκB pathway resulting in up-regulation of ICAM-1. IFNγ induces ICAM-1 up-regulation through activation of the JAK1/JAK2 pathway. The up-regulation of ICAM-1 can be quantified by flow cytometry across a compound dose curve and EC50 values are calculated. […]
A549 lung epithelial cells up-regulate ICAM-1 (CD54) surface expression in response to a variety of different stimuli. Therefore, using ICAM-1 expression as readout, compound effects on different signaling pathways can be assessed in the same cell type. […] In this example, the up-regulation of ICAM-1 by IFNγ was assessed. […]
On day three, the cell media was removed and the cells were washed with 200 μL PBS (phosphate buffered saline). […] Cells were washed with ice cold FACS buffer (PBS+2% FBS) and surface ICAM-1 expression was analyzed by flow cytometry. […]

The subject of the next experiment is JAK1 and JAK3 kinases. In words: Ramos B-cell line stimulated with IL-4, CD23 upregulation (FACS). It counts as cell-based, human. To be noted: Ramos B cells, IL-4 50 units/mL, 20-24 hours, CD23 staining; read-out: Example 3 IC50. The protocol:
One means of assaying for JAK inhibition is detection of the effect of compounds I and II on the upregulation of downstream gene products. In the Ramos/IL4 assay, B-cells are stimulated with the cytokine Interleukin-4 (IL-4) leading to the activation of the JAK/Stat pathway through phosphorylation of the JAK family kinases, JAK1 and JAK3, which in turn phosphorylate and activate the transcription factor Stat-6. […] Twenty to 24 hours post stimulation, cells are stained for upregulation of CD23 and analyzed using flow cytometry (FACS). […] An exemplary assay of this type is described in greater detail below. B-cells stimulated with cytokine Interleukin-4 (IL-4) activate the JAK/Stat pathway through phosphorylation of the JAK family kinases, JAK-1 and JAK-3, which in turn phosphorylate and activate the transcription factor Stat-6. […] To study the effect of inhibitors on the JAK family kinases, human Ramos B cells are stimulated with human IL-4. The Ramos B-cell line was acquired from [NT] No. CRL-1596). The cells were cultured in RPMI 1640 (Cellgro, MediaTech, Inc., Herndon, Va., Cat No. 10-040-CM) with 10% fetal bovine serum (FBS), heat inactivated (JRH Biosciences, Inc, Lenexa, Kans., Cat No. 12106-500M) according to ATCC propagation protocol. Cells were maintained at a density of 3.5×10^5. The day before the experiment, Ramos B-cells were diluted to 3.5×10^5 cells/mL to ensure that they were in a logarithmic growth phase. Cells were spun down and suspended in RPMI with 5% serum. 5×10^4 cells were used per point in a 96-well tissue culture plate. Cells were pre-incubated with compound or DMSO (Sigma-Aldrich, St. Louis, Mo., Cat No. D2650) vehicle control for 1 hour in a 37° C. incubator. Cells were then stimulated with IL-4 (Peprotech Inc., Rocky Hill, N.J., Cat No. 200-04) for a final concentration of 50 units/mL for 20-24 hours. Cells were then spun down and stained with anti-CD23-PE(BD Pharmingen, San Diego, Calif., Cat No. 555711) and analyzed by FACS. Detection was performed using a BD LSR I System Flow Cytometer, purchased from Becton Dickinson Biosciences of San Jose, Calif.

On to `C#CCOc1ccc(Nc2nc(Nc3ccc(C)c(S(=O)(=O)NC(=O)CC)c3)ncc2F)cc1` [VI, 5-Fluoro-N2-[4-methyl-3-(N-propionylaminosulfonyl)phenyl]-N4-[4-(2-propynyloxy)phenyl]-2,4-pyrimidinediamine Arginine Salt], for which the IC50 is 4970 nM in the experiment on JAK1/JAK2 pathway; 104 nM in the experiment on JAK1 and JAK3 kinases.

For orientation: IC50 means the concentration that gives 50% inhibition.
